Some test systems named below: SF-539; MCF7; SF-268; HCT-15; CCRF-CEM; CAKI-1; PC-3; HOP-62; MDA-MB-435; BT-549; HL-60; ACHN; EKVX; MOLT-4; 786-0; A498; SK-MEL-2; U-251; OVCAR-5; SNB-75.
Common to all, as to experiment: NCI anticancer screen, dose series, 48 h

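Cells were grown in 96-well plates and exposed to each compound for 48 hours at five concentrations; endpoints were interpolated linearly between bracketing concentrations, or set to the highest concentration if not reached. At the GI50, growth is halved.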 The source made the active and inactive calls. No stated cut-off is given here; in the data, active = GI50 up to about 1.1 µM and inactive = higher.

Consider `COc1cc(C2C3=C(COC3=O)Oc3cc4c(cc32)OCO4)cc(OC)c1OC(C)=O` (centres undefined), for which the GI50 in the assay on SF-539 is < 0.01 µM (active); in the assay with MCF7 it was < 0.012 µM (active); in the assay on SF-268 it was 0.0608 µM (active); in the assay with HCT-15 it was 0.0226 µM; in the assay with CCRF-CEM it was 0.0258 µM (active); with CAKI-1, < 0.01 µM (active). Also, the GI50 is < 0.01 µM (active) with PC-3; 0.0157 µM (active) in the assay on HOP-62; < 0.01 µM (active) in the assay with MDA-MB-435; 0.0255 µM (active) with BT-549; < 0.0104 µM (active) with HL-60; < 0.01 µM (active) in the assay with ACHN. In addition, the GI50 in the assay with EKVX was 0.0435 µM (active); with MOLT-4, 0.0612 µM (active); with 786-0, 0.0186 µM (active); with A498, 0.0116 µM (active); in the assay on SK-MEL-2, 37 µM (inactive); in the assay on U-251, 0.0388 µM (active).

Consider `COc1ccc2nc(N/N=C/c3ccc(C)s3)cc(C)c2c1`, for which the GI50 is 16.5 µM (inactive) in the assay with SF-539; 18 µM (inactive) with MCF7; 20.1 µM (inactive) with SF-268; 7.96 µM in the assay on HCT-15; 28.1 µM (inactive) in the assay with CCRF-CEM; 23 µM (inactive) in the assay with CAKI-1. The GI50 is 17.1 µM (inactive) with PC-3; 20.1 µM (inactive) in the assay on HOP-62; 19 µM (inactive) in the assay on MDA-MB-435; 15.7 µM (inactive) with OVCAR-5; 14.9 µM (inactive) in the assay on BT-549; 24.3 µM (inactive) in the assay on SNB-75. The GI50 is 27.2 µM (inactive) in the assay with HL-60; 17.7 µM (inactive) with ACHN; 26.4 µM (inactive) in the assay on EKVX; 12.9 µM (inactive) in the assay with MOLT-4; 13 µM (inactive) in the assay on 786-0; 21.7 µM (inactive) in the assay with SK-MEL-2. Also, the GI50 in the assay with U-251 was 21.1 µM (inactive).

As for `Cc1c(CN2CCOCC2)c(CN2CCOCC2)c(C)n1-c1ccc(Cl)cn1`, the GI50 in the assay with MCF7 was > 100 µM (inactive); in the assay on SF-268 it was > 100 µM (inactive); with HCT-15, above 100 µM; with CCRF-CEM it was > 100 µM (inactive); in the assay with CAKI-1, > 100 µM (inactive); with PC-3, > 100 µM (inactive). Moreover, the GI50 with HOP-62, in the assay on MDA-MB-435, in the assay with OVCAR-5, in the assay with BT-549, in the assay on SNB-75 and in the assay on ACHN was > 100 µM (inactive) each time. The GI50 in the assay on EKVX, with MOLT-4, in the assay on 786-0, in the assay on A498, with SK-MEL-2 and in the assay on U-251 was > 100 µM (inactive) each time.

As for `CC[C@H]1OC([C@H](O)C/C=C\C#C[Si](C)(C)C)C/C=C\C[C@H]1O[Si](C)(C)C(C)(C)C` (some centres undefined), the GI50 is 51.4 µM (inactive) with MCF7; > 100 µM (inactive) in the assay on SF-268; above 100 µM with HCT-15; 43.3 µM (inactive) in the assay with CCRF-CEM; > 100 µM (inactive) with CAKI-1; > 100 µM (inactive) with PC-3. In addition, the GI50 in the assay with HOP-62, in the assay with MDA-MB-435, in the assay with OVCAR-5, with BT-549, in the assay on SNB-75 and with ACHN was > 100 µM (inactive) each time. Also, the GI50 in the assay on EKVX, in the assay with MOLT-4, with 786-0, with A498, in the assay with SK-MEL-2 and with U-251 was > 100 µM (inactive) in each case.

Regarding `CCOC(=O)C1C(=O)CC1(C)C` (centres undefined), the GI50 is > 10 µM (inactive) with SF-539; > 10 µM (inactive) in the assay on MCF7; > 10 µM (inactive) in the assay with SF-268; above 10 µM in the assay on HCT-15; > 10 µM (inactive) in the assay on CCRF-CEM; > 10 µM (inactive) in the assay on CAKI-1. In addition, the GI50 in the assay on PC-3, in the assay on HOP-62, with MDA-MB-435, in the assay on OVCAR-5, with BT-549 and in the assay with HL-60 was > 10 µM (inactive) each time. Also, the GI50 in the assay with ACHN, with EKVX, in the assay on MOLT-4, in the assay on 786-0, in the assay on A498 and in the assay with SK-MEL-2 was > 10 µM (inactive) each time. Also, in the assay on U-251, the GI50 is > 10 µM (inactive).

Consider `N#C[C@@H](c1ccccn1)c1ncccc1[N+](=O)[O-]`, for which the GI50 in the assay on MCF7 is 74 µM (inactive); in the assay on SF-268, > 100 µM (inactive); with HCT-15, above 100 µM; in the assay on CCRF-CEM, > 100 µM (inactive); in the assay with CAKI-1, > 100 µM (inactive); in the assay with PC-3, > 100 µM (inactive). For the same molecule, the GI50 in the assay on HOP-62, in the assay on MDA-MB-435, in the assay with OVCAR-5, in the assay on BT-549, with SNB-75 and in the assay with ACHN was > 100 µM (inactive) in each case. In addition, the GI50 in the assay on EKVX, with MOLT-4, with 786-0, with A498, with SK-MEL-2 and in the assay on U-251 was > 100 µM (inactive) in each case.

Consider `O=c1oc2ccc([N+](=O)[O-])cc2c(Nc2ccc3c(c2)S(=O)(=O)c2ccccc2O3)c1[N+](=O)[O-]`, for which the GI50 in the assay with SF-539 was 46.8 µM (inactive); in the assay on MCF7, > 100 µM (inactive); in the assay with SF-268, 88.5 µM (inactive); in the assay with HCT-15 it was 83 µM; in the assay with CCRF-CEM it was 38.3 µM (inactive); in the assay with CAKI-1 it was > 100 µM (inactive). Besides, the GI50 with PC-3 is 34.8 µM (inactive); in the assay on HOP-62 it was 49.9 µM (inactive); in the assay on MDA-MB-435, > 100 µM (inactive); with OVCAR-5, > 100 µM (inactive); in the assay with BT-549 it was 73.1 µM (inactive); with SNB-75, 73.6 µM (inactive). The GI50 in the assay with HL-60 is > 100 µM (inactive); in the assay on ACHN, > 100 µM (inactive); in the assay on EKVX it was > 100 µM (inactive); in the assay with MOLT-4 it was 40.1 µM (inactive); in the assay on 786-0, > 100 µM (inactive); in the assay with SK-MEL-2, 52.2 µM (inactive). For the same molecule, the GI50 in the assay with U-251 was 57.3 µM (inactive).

For `CCOC(=O)C(=C(SC)SC)c1nn2c(=O)cc(C)nc2s1`, the GI50 with SF-539 was 18.2 µM (inactive); in the assay with MCF7, 20.5 µM (inactive); in the assay on SF-268 it was 22.1 µM (inactive); in the assay on HCT-15, 17.1 µM; in the assay on CCRF-CEM, 22.6 µM (inactive); in the assay with CAKI-1, 24.6 µM (inactive). Also, the GI50 with PC-3 is 23.3 µM (inactive); with HOP-62, > 100 µM (inactive); in the assay on MDA-MB-435, 16.6 µM (inactive); in the assay on OVCAR-5, 28.4 µM (inactive); with BT-549, 18.2 µM (inactive); in the assay on SNB-75, 31.4 µM (inactive). The GI50 is 17.4 µM (inactive) with HL-60; 18.4 µM (inactive) in the assay with ACHN; 24.3 µM (inactive) in the assay on EKVX; 17.7 µM (inactive) in the assay with MOLT-4; 19.1 µM (inactive) in the assay with 786-0; 20.1 µM (inactive) in the assay with SK-MEL-2. The GI50 with U-251 was 23.6 µM (inactive).

As to `CCCCNC(=S)Nc1nc(C(=O)NNC(=S)NCc2ccccc2)cs1`, the GI50 was 31.9 µM (inactive) with SF-539; 12.3 µM (inactive) in the assay with MCF7; 20.6 µM (inactive) in the assay with SF-268; 10.2 µM in the assay with HCT-15; > 10 µM (inactive) with CCRF-CEM; 29.6 µM (inactive) with CAKI-1. Also, the GI50 in the assay on PC-3 is 62.1 µM (inactive); in the assay on HOP-62, > 100 µM (inactive); in the assay with MDA-MB-435, 35.8 µM (inactive); with OVCAR-5 it was > 100 µM (inactive); in the assay with BT-549, 67 µM (inactive); in the assay on ACHN, 26.6 µM (inactive). The GI50 was 42.8 µM (inactive) with EKVX; 19.1 µM (inactive) in the assay on MOLT-4; 39.4 µM (inactive) in the assay on 786-0; > 100 µM (inactive) in the assay on A498; 46.9 µM (inactive) in the assay on SK-MEL-2; 34.5 µM (inactive) in the assay with U-251.

For `O=C1/C(=C/c2cccs2)N=C(c2ccccc2)N1c1nc2ccccc2s1`, the GI50 in the assay with SF-539 was > 100 µM (inactive); in the assay with MCF7, 49.9 µM (inactive); in the assay on SF-268 it was 7.74 µM (inactive); with HCT-15, 82.4 µM; with CCRF-CEM, 0.162 µM (active); in the assay with CAKI-1, 14 µM (inactive). For the same molecule, the GI50 was > 100 µM (inactive) in the assay on PC-3; > 100 µM (inactive) in the assay with HOP-62; > 100 µM (inactive) in the assay on MDA-MB-435; > 100 µM (inactive) with OVCAR-5; 53.3 µM (inactive) in the assay with BT-549; > 100 µM (inactive) with HL-60. Further, the GI50 was > 100 µM (inactive) in the assay on ACHN; 49.9 µM (inactive) in the assay on EKVX; 11.7 µM (inactive) in the assay with MOLT-4; 41.3 µM (inactive) with 786-0; > 100 µM (inactive) in the assay with A498; > 100 µM (inactive) with SK-MEL-2. Besides, the GI50 in the assay on U-251 is 95.1 µM (inactive).

For the molecule `Clc1ccc(Oc2ccc(/N=C/c3ccc(Cl)cc3Cl)cc2Cl)cc1`, the GI50 is 23.6 µM (inactive) in the assay with SF-539; 33.7 µM (inactive) in the assay on MCF7; 31.8 µM (inactive) with SF-268; 23.8 µM in the assay with HCT-15; 4.29 µM (inactive) in the assay with CCRF-CEM; 36.5 µM (inactive) in the assay on CAKI-1. The GI50 in the assay on PC-3 is 35 µM (inactive); in the assay on HOP-62, 54.3 µM (inactive); with MDA-MB-435, 18.5 µM (inactive); in the assay on OVCAR-5, > 100 µM (inactive); with BT-549, 29.2 µM (inactive); in the assay on SNB-75, 23.6 µM (inactive). Moreover, the GI50 was 9.2 µM (inactive) with HL-60; > 100 µM (inactive) with ACHN; 30.1 µM (inactive) with EKVX; 21.7 µM (inactive) with MOLT-4; 22.4 µM (inactive) in the assay with 786-0; 61.2 µM (inactive) in the assay on SK-MEL-2. For the same molecule, the GI50 in the assay with U-251 was 29.4 µM (inactive).
